Patent US9409905B2, “Antibacterial compounds and methods for use” (PTC THERAPEUTICS, INC., priority 2011, dated 2016)
≈ marks a conversion by molar mass, not a printed value.

Assays:
[1] = test system: Escherichia coli (E. coli) BAS849; test: Antibacterial activity, microbroth dilution MIC (Table 1); assay type: cell-based; conditions: microbroth dilution, super sensitive Gram-negative E. coli BAS849, read-out: MIC, BAS849
How it was run: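 Values are MICs (μg/mL): the smallest drug amount at which macroscopically visible bacterial growth is absent under assay conditions, from a microdilution method in broth.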

[2] = test system: Staphylococcus aureus (S. aureus) 29213; test: as above; assay type: cell-based; conditions: microbroth dilution, Gram-positive S. aureus 29213, read-out: MIC, 29213
How it was run: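 Broth microdilution; endpoint = no macroscopic growth; value = lowest inhibiting concn, μg/mL.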

[3] = test system: E. coli 25922; test: as above; assay type: cell-based, Escherichia coli; conditions: Escherichia coli; microbroth dilution; control Gram-negative E. coli 25922 strain; read-out: MIC, 25922
How it was run: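 In a microbroth dilution test, the minimum inhibitory concentration was defined as the lowest compound level preventing growth seen by eye, and was given in μg/mL.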

[4] = test system: E. coli LZ3111; test: Antibacterial activity, MIC, quinolone resistant strain (Table 2); assay type: cell-based; conditions: Escherichia coli, LZ3111, read-out: MIC LZ3111
How it was run: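 Growth inhibition assessed by serial drug dilution in broth; endpoint was absence of macroscopically visible growth, reported as MIC, μg/mL.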

[5] = test system: E. coli ELZ4000; test: Antibacterial activity, MIC, multi-drug resistant clinical isolate (Table 3); assay type: cell-based; conditions: Escherichia coli, ELZ4000, read-out: MIC ELZ4000
How it was run: (§1)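 Values derive from a microbroth dilution method, taking as MIC (μg/mL) the lowest tested concentration without macroscopically visible growth.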

[6] = test system: E. coli ELZ4251; test: as above; assay type: cell-based; conditions: Escherichia coli
How it was run: as §1

[7] = test system: Acinetobacter baumannii (A. baumannii) BAA747; test: Antibacterial activity, MIC (Table 4); assay type: cell-based; conditions: A. baumannii BAA747, read-out: MIC, BAA747
How it was run: (§2)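 Compounds are serially diluted in microbroth, bacteria are grown under the test conditions, and growth is then inspected macroscopically. The lowest concentration without visible growth is reported as the MIC (μg/mL).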

[8] = test system: Klebsiella pneumoniae (K. pneumoniae) 35657; test: Antibacterial activity, MIC (Table 4); assay type: cell-based; conditions: K. pneumoniae 35657, read-out: MIC, 35657
How it was run: as §2

[9] = test system: A. baumannii MXX2240; test: Antibacterial activity, MIC, resistant strain (Table 4); assay type: cell-based; conditions: Acinetobacter baumannii, MXX2240; resistant A. baumannii MMX2240, multi-drug resistant clinical isolate; read-out: MIC, MMX2240
How it was run: as §2

[10] = test system: K. pneumoniae MXX1232; test: as above; assay type: cell-based; conditions: Klebsiella pneumoniae, MXX1232; resistant K. pneumoniae MMX1232, multi-drug resistant clinical isolate; read-out: MIC, MMX1232
How it was run: as §2

[11] = test system: Pseudomonas aeruginosa (P. aeruginosa) 27853; test: Antibacterial activity, MIC (Table 5); assay type: cell-based; conditions: P. aeruginosa 27853, read-out: MIC, 27853
How it was run: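 Using a microbroth dilution format, the minimum inhibitory concentration was recorded as the lowest tested concentration that stopped visible bacterial growth, expressed in μg/mL.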

[12] = test system: Haemophilus influenzae (H. influenzae) 49247; test: Antibacterial activity, MIC (Table 6); assay type: cell-based
How it was run: (§3)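 Values are minimum inhibitory concentrations in μg/mL, read as the lowest compound concentration at which no growth is visible to the eye. Testing used a microbroth dilution format.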

[13] = test system: Moraxella catarrhalis (M. catarrhalis) 25238; test: Antibacterial activity, MIC (Table 7); assay type: cell-based
How it was run: as §3

[14] = test system: Neisseria meningitidis (N. meningitidis) 13090; test: Antibacterial activity, MIC (Table 8); assay type: cell-based
How it was run: as §3

SMILES: CCc1c(-c2ccc3c(c2)cc(CN2CC(O)C2)n3C)[nH]c(=O)c(C(=O)O)c1O [Cpd 187, 5-ethyl-4-hydroxy-6-(2-((3-hydroxyazetidin-1-yl)methyl)-1-methyl-1H-indol-5-yl)-2-oxo-1,2-dihydropyridine-3-carboxylic acid]
- MIC [1]: < 1 µg/mL
- MIC [2]: 12.5 to 150 µg/mL (≈ 31.5 to 377 µM)
- MIC [3]: < 1 µg/mL
- MIC [4]: 1 to 3.5 µg/mL (≈ 2.52 to 8.81 µM)
- MIC [5]: 12.5 to 150 µg/mL (≈ 31.5 to 377 µM)
- MIC [6]: 3.5 to 12.5 µg/mL (≈ 8.81 to 31.5 µM)
- MIC [7]: 1 to 3.5 µg/mL (≈ 2.52 to 8.81 µM)
- MIC [8]: 1 to 3.5 µg/mL (≈ 2.52 to 8.81 µM)
- MIC [9]: 12.5 to 150 µg/mL (≈ 31.5 to 377 µM)
- MIC [10]: 12.5 to 150 µg/mL (≈ 31.5 to 377 µM)
- MIC [11]: 3.5 to 12.5 µg/mL (≈ 8.81 to 31.5 µM)
- MIC [12]: < 1 µg/mL
- MIC [13]: < 1 µg/mL
- MIC [14]: < 1 µg/mL

SMILES: CCc1c(-c2ccc3c(c2)cc(CNCC2CCCCN2C)n3C)[nH]c(=O)c(C(=O)O)c1O.Cl.Cl (stereo not drawn) [Cpd 233, 5-ethyl-4-hydroxy-6-(1-methyl-2-((((1-methylpiperidin-2-yl)methyl)amino)methyl)-1H-indol-5-yl)-2-oxo-1,2-dihydropyridine-3-carboxylic acid dihydrochloride]
- MIC [1]: < 1 µg/mL
- MIC [2]: 12.5 to 150 µg/mL
- MIC [3]: 1 to 3.5 µg/mL
- MIC [4]: 1 to 3.5 µg/mL
- MIC [5]: 12.5 to 150 µg/mL
- MIC [6]: 12.5 to 150 µg/mL
- MIC [7]: 12.5 to 150 µg/mL
- MIC [8]: 1 to 3.5 µg/mL
- MIC [9]: 12.5 to 150 µg/mL
- MIC [10]: 12.5 to 150 µg/mL
- MIC [11]: 12.5 to 150 µg/mL
- MIC [12]: 3.5 to 12.5 µg/mL
- MIC [13]: 3.5 to 12.5 µg/mL
- MIC [14]: 1 to 3.5 µg/mL

SMILES: CCc1c(-c2ccc3c(c2)cc(CN2C[C@H]4C[C@@H](N(C)C)C[C@H]4C2)n3C)[nH]c(=O)c(C(=O)O)c1O [Cpd 285, 6-(2-(((3aR,5r,6aS)-5-(dimethylamino)hexahydrocyclopenta[c]pyrrol-2(1H)-yl)methyl)-1-methyl-1H-indol-5-yl)-5-ethyl-4-hydroxy-2-oxo-1,2-dihydropyridine-3-carboxylic acid]
- MIC [1]: < 1 µg/mL
- MIC [2]: 12.5 to 150 µg/mL (≈ 26.1 to 313 µM)
- MIC [3]: 1 to 3.5 µg/mL (≈ 2.09 to 7.31 µM)
- MIC [4]: 1 to 3.5 µg/mL (≈ 2.09 to 7.31 µM)
- MIC [5]: 12.5 to 150 µg/mL (≈ 26.1 to 313 µM)
- MIC [6]: 3.5 to 12.5 µg/mL (≈ 7.31 to 26.1 µM)
- MIC [7]: 3.5 to 12.5 µg/mL (≈ 7.31 to 26.1 µM)
- MIC [8]: 1 to 3.5 µg/mL (≈ 2.09 to 7.31 µM)
- MIC [9]: 12.5 to 150 µg/mL (≈ 26.1 to 313 µM)
- MIC [10]: 12.5 to 150 µg/mL (≈ 26.1 to 313 µM)
- MIC [11]: 12.5 to 150 µg/mL (≈ 26.1 to 313 µM)
- MIC [12]: 1 to 3.5 µg/mL (≈ 2.09 to 7.31 µM)
- MIC [13]: 1 to 3.5 µg/mL (≈ 2.09 to 7.31 µM)
- MIC [14]: < 1 µg/mL

SMILES: CCc1c(-c2ccc3c(c2)cc(CN2CCNCC2)n3C)[nH]c(=O)c(C(=O)O)c1O [Cpd 171, 5-ethyl-4-hydroxy-6-(1-methyl-2-(piperazin-1-ylmethyl)-1H-indol-5-yl)-2-oxo-1,2-dihydropyridine-3-carboxylic acid]
- MIC [1]: < 1 µg/mL
- MIC [2]: 12.5 to 150 µg/mL (≈ 30.5 to 365 µM)
- MIC [3]: 1 to 3.5 µg/mL (≈ 2.44 to 8.53 µM)
- MIC [4]: 1 to 3.5 µg/mL (≈ 2.44 to 8.53 µM)
- MIC [5]: 12.5 to 150 µg/mL (≈ 30.5 to 365 µM)
- MIC [6]: 12.5 to 150 µg/mL (≈ 30.5 to 365 µM)
- MIC [7]: 12.5 to 150 µg/mL (≈ 30.5 to 365 µM)
- MIC [8]: 1 to 3.5 µg/mL (≈ 2.44 to 8.53 µM)
- MIC [9]: 12.5 to 150 µg/mL (≈ 30.5 to 365 µM)
- MIC [10]: 12.5 to 150 µg/mL (≈ 30.5 to 365 µM)
- MIC [11]: 12.5 to 150 µg/mL (≈ 30.5 to 365 µM)
- MIC [12]: 1 to 3.5 µg/mL (≈ 2.44 to 8.53 µM)
- MIC [13]: 3.5 to 12.5 µg/mL (≈ 8.53 to 30.5 µM)
- MIC [14]: 1 to 3.5 µg/mL (≈ 2.44 to 8.53 µM)

SMILES: CCc1c(-c2ccc3c(c2)cc(CN2CCCC2C)n3C)[nH]c(=O)c(C(=O)O)c1O (stereo not drawn) [Cpd 173, 5-ethyl-4-hydroxy-6-(1-methyl-2-((2-methylpyrrolidin-1-yl)methyl)-1H-indol-5-yl)-2-oxo-1,2-dihydropyridine-3-carboxylic acid]
- MIC [1]: < 1 µg/mL
- MIC [2]: 3.5 to 12.5 µg/mL (≈ 8.55 to 30.5 µM)
- MIC [3]: < 1 µg/mL
- MIC [4]: 3.5 to 12.5 µg/mL (≈ 8.55 to 30.5 µM)
- MIC [5]: 12.5 to 150 µg/mL (≈ 30.5 to 366 µM)
- MIC [6]: 3.5 to 12.5 µg/mL (≈ 8.55 to 30.5 µM)
- MIC [7]: 1 to 3.5 µg/mL (≈ 2.44 to 8.55 µM)
- MIC [8]: 1 to 3.5 µg/mL (≈ 2.44 to 8.55 µM)
- MIC [9]: 12.5 to 150 µg/mL (≈ 30.5 to 366 µM)
- MIC [10]: 12.5 to 150 µg/mL (≈ 30.5 to 366 µM)
- MIC [11]: 12.5 to 150 µg/mL (≈ 30.5 to 366 µM)
- MIC [12]: < 1 µg/mL
- MIC [13]: < 1 µg/mL
- MIC [14]: < 1 µg/mL

SMILES: CCc1c(-c2ccc3c(c2)cc(CN(C)C2CCC2)n3C)[nH]c(=O)c(C(=O)O)c1O.Cl [Cpd 209, 6-(2-((cyclobutyl(methyl)amino)methyl)-1-methyl-1H-indol-5-yl)-5-ethyl-4-hydroxy-2-oxo-1,2-dihydropyridine-3-carboxylic acid hydrochloride]
- MIC [1]: < 1 µg/mL
- MIC [2]: 3.5 to 12.5 µg/mL
- MIC [3]: < 1 µg/mL
- MIC [4]: 3.5 to 12.5 µg/mL
- MIC [5]: 12.5 to 150 µg/mL
- MIC [6]: 12.5 to 150 µg/mL
- MIC [7]: 1 to 3.5 µg/mL
- MIC [8]: 1 to 3.5 µg/mL
- MIC [9]: 3.5 to 12.5 µg/mL
- MIC [10]: 12.5 to 150 µg/mL
- MIC [11]: 12.5 to 150 µg/mL
- MIC [12]: < 1 µg/mL
- MIC [13]: < 1 µg/mL
- MIC [14]: < 1 µg/mL
